Reference: patent US10780090B2, “Heteroaryl compounds useful as inhibitors of SUMO activating enzyme” (Millennium Pharmaceuticals, Inc., priority 2014, dated 2020)

Molecular target: recombinant human SAE enzyme (Homo sapiens (Human), UniProt Q9UBT2)
Test: SAE HTRF enzyme assay
Type: biochemical
Settings: for inhibition at 0.111 µM: read-out: Percent Inhibition
Procedure, shortened: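 This HTRF format monitors Sumo-Flag–Ubc9-GST thioester formation catalysed by 0.11 nM human SAE with 0.5 μM ATP over 105 min at 24° C. Inhibition is expressed at a single concentration or as IC50.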

[1] = SAE inhibition at compound concentration 0.111 μM
[2] = SAE inhibition, class symbols, legend in nM

Chain of recombinant human SAE enzyme (Q9UBT2 whole entry): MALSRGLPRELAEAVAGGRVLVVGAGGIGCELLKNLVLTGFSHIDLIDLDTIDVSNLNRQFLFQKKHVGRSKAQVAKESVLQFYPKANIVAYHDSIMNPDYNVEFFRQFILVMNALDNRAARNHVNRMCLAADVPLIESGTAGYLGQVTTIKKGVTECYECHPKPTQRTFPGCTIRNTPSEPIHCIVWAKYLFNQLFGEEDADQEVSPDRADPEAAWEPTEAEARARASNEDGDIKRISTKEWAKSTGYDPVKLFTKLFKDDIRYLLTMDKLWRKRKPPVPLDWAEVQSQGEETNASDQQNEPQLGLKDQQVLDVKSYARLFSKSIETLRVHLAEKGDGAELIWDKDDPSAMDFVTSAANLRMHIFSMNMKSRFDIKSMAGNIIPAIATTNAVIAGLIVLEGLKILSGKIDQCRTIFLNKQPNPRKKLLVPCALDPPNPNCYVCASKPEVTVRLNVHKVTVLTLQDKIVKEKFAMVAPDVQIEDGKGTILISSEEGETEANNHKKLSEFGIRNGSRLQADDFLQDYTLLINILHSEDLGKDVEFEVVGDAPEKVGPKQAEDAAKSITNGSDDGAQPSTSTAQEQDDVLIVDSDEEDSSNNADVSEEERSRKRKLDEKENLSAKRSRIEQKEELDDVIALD
Chain of recombinant human SAE enzyme (Q9UBE0 whole entry partner): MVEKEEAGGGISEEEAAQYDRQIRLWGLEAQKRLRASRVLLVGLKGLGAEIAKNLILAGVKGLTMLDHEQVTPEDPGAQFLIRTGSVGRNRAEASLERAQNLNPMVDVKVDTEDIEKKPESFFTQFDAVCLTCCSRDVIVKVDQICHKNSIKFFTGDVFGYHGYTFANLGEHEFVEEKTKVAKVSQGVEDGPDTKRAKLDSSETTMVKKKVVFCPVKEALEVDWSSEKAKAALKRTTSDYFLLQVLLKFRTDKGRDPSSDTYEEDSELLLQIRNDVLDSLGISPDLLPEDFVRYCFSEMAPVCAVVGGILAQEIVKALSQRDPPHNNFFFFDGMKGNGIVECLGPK

| SMILES | Percent Inhibition (Concentration 0.111 μM) | IC50 (class symbols A/B/C) [nM] | inhibition at 0.111 µM (Concentration 0.111 μM) [%] | Percent Inhibition [1] [%] | IC50 [2] [nM] |
| --- | --- | --- | --- | --- | --- |
| Cc1sc(C(=O)c2cncnc2N[C@@H]2C[C@H](COS(N)(=O)=O)[C@@H](O)C2)cc1[C@@H]1OCCc2ccc(C3CC3)cc21 (mixture of isomers) [I-277, [(1R,2S,4R)-4-{[5-({4-[(1R)-7-cyclopropyl-3,4-dihydro-1H-isochromen-1-yl]-5-methyl-2-thienyl}carbonyl)pyrimidin-4-yl]amino}-2-hydroxycyclopentyl]methyl sulfamate and [(1R,2S,4R)-4-{[5-({4-[(1S)-7-cyclopropyl-3,4-dihydro-1H-isochromen-1-yl]-5-methyl-2-thienyl}carbonyl)pyrimidin-4-yl]amino}-2-hydroxycyclopentyl]methyl sulfamate] | 99 | < 10 |  |  |  |
| NS(=O)(=O)OC[C@H]1C[C@@H](Nc2ncncc2C(=O)c2cc(CN3Cc4ccccc4C3)cs2)C[C@@H]1O [I-187, {(1R,2S,4R)-4-[(5-{[4-(1,3-dihydro-2H-isoindol-2-ylmethyl)-2-thienyl]carbonyl}pyrimidin-4-yl)amino]-2-hydroxycyclopentyl}methyl sulfamate] |  | 10 to 100 | 76 |  |  |
| NS(=O)(=O)OC[C@H]1C[C@@H](Nc2ncncc2C(=O)c2cc([C@H](O)c3cccc(Cl)n3)c(Cl)s2)C[C@@H]1O (single isomer, unassigned) [I-2a, [(1R,2S,4R)-4-{[5-({5-chloro-4-[(S)-(6-chloropyridin-2-yl)(hydroxy)methyl]-2-thienyl}carbonyl)pyrimidin-4-yl]amino}-2-hydroxycyclopentyl]methyl sulfamate or [(1R,2S,4R)-4-{[5-({5-chloro-4-[(R)-(6-chloropyridin-2-yl)(hydroxy)methyl]-2-thienyl}carbonyl)pyrimidin-4-yl]amino}-2-hydroxycyclopentyl]methyl sulfamate] | 99 | < 10 |  |  |  |
| Cc1sc(C(=O)c2cncnc2N[C@@H]2C[C@H](COS(N)(=O)=O)[C@@H](O)C2)cc1[C@H]1OCCc2ccc(N3CCCC3)nc21 (mixture of isomers) [I-348, [(1R,2S,4R)-2-hydroxy-4-{[5-({5-methyl-4-[(8R)-2-(pyrrolidin-1-yl)-5,8-dihydro-6H-pyrano[3,4-b]pyridin-8-yl]-2-thienyl}carbonyl)pyrimidin-4-yl]amino}cyclopentyl]methyl sulfamate and [(1R,2S,4R)-2-hydroxy-4-{[5-({5-methyl-4-[(8S)-2-(pyrrolidin-1-yl)-5,8-dihydro-6H-pyrano[3,4-b]pyridin-8-yl]-2-thienyl}carbonyl)pyrimidin-4-yl]amino}cyclopentyl]methyl sulfamate] |  |  |  | 97 | < 10 |
| NS(=O)(=O)OC[C@H]1C[C@@H](Nc2ncncc2C(=O)c2cc(Cc3cncc(Cl)c3)cs2)C[C@@H]1O [I-210, [(1R,2S,4R)-4-{[5-({4-[(5-chloropyridin-3-yl)methyl]-2-thienyl}carbonyl)pyrimidin-4-yl]amino}-2-hydroxycyclopentyl]methyl sulfamate] |  | 100 to 1000 | 50 |  |  |
| Cc1oc(C(=O)c2cncnc2N[C@@H]2C[C@H](COS(N)(=O)=O)[C@@H](O)C2)cc1Cc1cccc(Cl)c1 [I-33, [(1R,2S,4R)-4-({5-[4-(3-chlorobenzyl)-5-methyl-2-furoyl]pyrimidin-4-yl}amino)-2-hydroxycyclopentyl]methyl sulfamate] |  | < 10 | 100 |  |  |
| Cc1sc(C(=O)c2cncnc2N[C@@H]2C[C@H](COS(N)(=O)=O)[C@@H](O)C2)cc1[C@@H]1OCCc2cccnc21 (mixture of isomers) [I-285, [(1R,2S,4R)-4-{[5-({4-[(8S)-5,8-dihydro-6H-pyrano[3,4-b]pyridin-8-yl]-5-methyl-2-thienyl}carbonyl)pyrimidin-4-yl]amino}-2-hydroxycyclopentyl]methyl sulfamate and [(1R,2S,4R)-4-{[5-({4-[(8R)-5,8-dihydro-6H-pyrano[3,4-b]pyridin-8-yl]-5-methyl-2-thienyl}carbonyl)pyrimidin-4-yl]amino}-2-hydroxycyclopentyl]methyl sulfamate] |  |  |  | 100 | < 10 |
| Cc1sc(C(=O)c2cncnc2N[C@@H]2C[C@H](COS(N)(=O)=O)[C@@H](O)C2)cc1[C@H]1NCCc2ccc(Br)cc21 (single isomer, unassigned) [I-248b, [(1R,2S,4R)-4-{[5-({4-[(1S)-7-bromo-1,2,3,4-tetrahydroisoquinolin-1-yl]-5-methyl-2-thienyl}carbonyl)pyrimidin-4-yl]amino}-2-hydroxycyclopentyl]methyl sulfamate or [(1R,2S,4R)-4-{[5-({4-[(1R)-7-bromo-1,2,3,4-tetrahydroisoquinolin-1-yl]-5-methyl-2-thienyl}carbonyl)pyrimidin-4-yl]amino}-2-hydroxycyclopentyl]methyl sulfamate] | 95 | < 10 |  |  |  |
| NS(=O)(=O)OC[C@H]1C[C@@H](Nc2ncncc2C(=O)c2cc([C@@H]3OCc4ccc(Cl)cc43)c(Cl)s2)C[C@@H]1O (single isomer, unassigned) [I-310b, [(1R,2S,4R)-4-{[5-({5-chloro-4-[(1R)-6-chloro-1,3-dihydro-2-benzofuran-1-yl]-2-thienyl}carbonyl)pyrimidin-4-yl]amino}-2-hydroxycyclopentyl]methyl sulfamate or [(1R,2S,4R)-4-{[5-({5-chloro-4-[(1S)-6-chloro-1,3-dihydro-2-benzofuran-1-yl]-2-thienyl}carbonyl)pyrimidin-4-yl]amino}-2-hydroxycyclopentyl]methyl sulfamate] |  |  |  | 98 | < 10 |
| NS(=O)(=O)OC[C@H]1C[C@@H](Nc2ncncc2C(=O)c2cc(COc3cccc(Cl)c3Cl)cs2)C[C@@H]1O [I-180, [(1R,2S,4R)-4-{[5-({4-[(2,3-dichlorophenoxy)methyl]-2-thienyl}carbonyl)pyrimidin-4-yl]amino}-2-hydroxycyclopentyl]methyl sulfamate] |  | 10 to 100 | 84 |  |  |
| N[C@H](c1cccc(Cl)n1)c1cc(C(=O)c2cncnc2N[C@@H]2C[C@H](COS(N)(=O)=O)[C@@H](O)C2)sc1Cl (single isomer, unassigned) [I-25b, [(1R,2S,4R)-4-{[5-({4-[(S)-amino(6-chloropyridin-2-yl)methyl]-5-chloro-2-thienyl}carbonyl)pyrimidin-4-yl]amino}-2-hydroxycyclopentyl]methyl sulfamate or [(1R,2S,4R)-4-{[5-({4-[(R)-amino(6-chloropyridin-2-yl)methyl]-5-chloro-2-thienyl}carbonyl)pyrimidin-4-yl]amino}-2-hydroxycyclopentyl]methyl sulfamate] | 99 | < 10 |  |  |  |
| Cc1sc(C(=O)c2cncnc2N[C@@H]2C[C@H](COS(N)(=O)=O)[C@@H](O)C2)cc1Sc1ccccc1 [I-137, {(1R,2S,4R)-2-hydroxy-4-[(5-{[5-methyl-4-(phenylsulfanyl)-2-thienyl]carbonyl}pyrimidin-4-yl)amino]cyclopentyl}methyl sulfamate] |  |  | 95 |  |  |
| NS(=O)(=O)OC[C@H]1C[C@@H](Nc2ncncc2C(=O)c2cc(Cc3cccc(Cl)c3F)cs2)C[C@@H]1O [I-84, {(1R,2S,4R)-4-[(5-{[4-(3-chloro-2-fluorobenzyl)-2-thienyl]carbonyl}pyrimidin-4-yl)amino]-2-hydroxycyclopentyl}methyl sulfamate] |  | < 10 | 98 |  |  |
